Test results published in ChEMBL document CHEMBL5291721, “A preclinical secondary pharmacology resource illuminates target-adverse drug reaction associations of marketed drugs” (Nat Commun, 2023).

Key:
[1] = target: T1, 5-hydroxytryptamine receptor 1A (Homo sapiens, UniProt P08908)
T1 sequence (P08908 whole entry): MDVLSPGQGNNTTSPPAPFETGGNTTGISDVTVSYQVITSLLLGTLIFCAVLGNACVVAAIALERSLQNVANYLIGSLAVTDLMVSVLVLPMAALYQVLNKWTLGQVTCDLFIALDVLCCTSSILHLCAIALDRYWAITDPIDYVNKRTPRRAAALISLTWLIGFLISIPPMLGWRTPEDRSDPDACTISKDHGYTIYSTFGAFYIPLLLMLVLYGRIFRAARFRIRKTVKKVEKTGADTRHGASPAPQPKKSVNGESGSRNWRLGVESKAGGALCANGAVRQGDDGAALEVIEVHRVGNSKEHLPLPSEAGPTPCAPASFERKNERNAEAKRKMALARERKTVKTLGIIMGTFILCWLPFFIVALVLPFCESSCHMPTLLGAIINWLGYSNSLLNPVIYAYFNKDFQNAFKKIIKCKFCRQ

[2] = target: T2, Progesterone receptor (Homo sapiens, UniProt P06401)
T2 sequence (P06401 whole entry): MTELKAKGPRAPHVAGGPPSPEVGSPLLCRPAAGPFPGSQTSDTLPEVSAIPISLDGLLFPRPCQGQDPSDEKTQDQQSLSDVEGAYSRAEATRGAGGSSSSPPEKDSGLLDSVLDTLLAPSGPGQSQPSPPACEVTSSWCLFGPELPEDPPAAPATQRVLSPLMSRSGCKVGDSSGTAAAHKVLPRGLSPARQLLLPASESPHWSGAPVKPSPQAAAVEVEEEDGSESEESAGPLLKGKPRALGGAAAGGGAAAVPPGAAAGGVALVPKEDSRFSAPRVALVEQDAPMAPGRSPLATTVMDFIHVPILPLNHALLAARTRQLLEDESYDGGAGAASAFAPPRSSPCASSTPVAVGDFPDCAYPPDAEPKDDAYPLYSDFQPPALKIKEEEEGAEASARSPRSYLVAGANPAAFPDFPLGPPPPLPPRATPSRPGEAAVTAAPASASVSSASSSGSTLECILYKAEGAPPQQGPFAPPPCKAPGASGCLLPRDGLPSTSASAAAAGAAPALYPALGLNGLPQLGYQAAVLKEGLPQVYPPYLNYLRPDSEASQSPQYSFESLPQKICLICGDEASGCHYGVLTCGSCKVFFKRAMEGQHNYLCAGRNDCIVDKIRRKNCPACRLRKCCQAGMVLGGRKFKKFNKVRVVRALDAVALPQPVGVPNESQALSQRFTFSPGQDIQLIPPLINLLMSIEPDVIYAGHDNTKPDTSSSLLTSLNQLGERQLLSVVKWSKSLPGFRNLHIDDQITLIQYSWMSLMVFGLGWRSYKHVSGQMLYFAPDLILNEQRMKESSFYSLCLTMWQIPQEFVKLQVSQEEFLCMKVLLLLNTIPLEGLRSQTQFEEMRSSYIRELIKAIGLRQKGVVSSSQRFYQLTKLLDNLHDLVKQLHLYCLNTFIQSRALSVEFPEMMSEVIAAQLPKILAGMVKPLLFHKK

[3] = target: Sodium-dependent noradrenaline transporter (Homo sapiens, UniProt P23975)
Sequence of Sodium-dependent noradrenaline transporter (P23975 whole entry): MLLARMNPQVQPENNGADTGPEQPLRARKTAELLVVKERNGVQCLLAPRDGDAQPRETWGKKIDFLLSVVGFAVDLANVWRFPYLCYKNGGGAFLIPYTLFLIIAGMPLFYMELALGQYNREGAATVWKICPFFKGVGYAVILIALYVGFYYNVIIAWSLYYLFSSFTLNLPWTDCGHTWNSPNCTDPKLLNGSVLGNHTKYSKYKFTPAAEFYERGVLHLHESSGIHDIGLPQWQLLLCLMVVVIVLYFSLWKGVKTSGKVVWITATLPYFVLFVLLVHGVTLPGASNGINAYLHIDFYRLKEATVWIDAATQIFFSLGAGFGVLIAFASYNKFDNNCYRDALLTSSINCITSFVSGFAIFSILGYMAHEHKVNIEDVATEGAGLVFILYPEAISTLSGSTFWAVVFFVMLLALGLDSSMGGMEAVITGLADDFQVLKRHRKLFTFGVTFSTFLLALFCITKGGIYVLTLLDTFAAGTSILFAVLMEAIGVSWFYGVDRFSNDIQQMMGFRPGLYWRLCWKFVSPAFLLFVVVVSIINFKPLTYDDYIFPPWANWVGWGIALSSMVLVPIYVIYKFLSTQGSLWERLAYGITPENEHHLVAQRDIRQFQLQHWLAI

[4] = target: T3, Thromboxane A2 receptor (Homo sapiens, UniProt P21731); format: functional, cell-based
T3 sequence (P21731 whole entry): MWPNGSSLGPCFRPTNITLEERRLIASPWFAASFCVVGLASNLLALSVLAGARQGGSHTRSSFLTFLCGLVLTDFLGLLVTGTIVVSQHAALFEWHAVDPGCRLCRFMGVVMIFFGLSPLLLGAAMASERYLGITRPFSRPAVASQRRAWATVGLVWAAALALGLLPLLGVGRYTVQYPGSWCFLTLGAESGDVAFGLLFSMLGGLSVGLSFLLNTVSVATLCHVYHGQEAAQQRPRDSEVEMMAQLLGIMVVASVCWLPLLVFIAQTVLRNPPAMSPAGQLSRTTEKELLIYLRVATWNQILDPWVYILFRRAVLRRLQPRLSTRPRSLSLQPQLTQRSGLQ

[5] = target: Prostaglandin G/H synthase 1 (Homo sapiens, UniProt P23219); format: functional
Sequence of Prostaglandin G/H synthase 1 (P23219 whole entry): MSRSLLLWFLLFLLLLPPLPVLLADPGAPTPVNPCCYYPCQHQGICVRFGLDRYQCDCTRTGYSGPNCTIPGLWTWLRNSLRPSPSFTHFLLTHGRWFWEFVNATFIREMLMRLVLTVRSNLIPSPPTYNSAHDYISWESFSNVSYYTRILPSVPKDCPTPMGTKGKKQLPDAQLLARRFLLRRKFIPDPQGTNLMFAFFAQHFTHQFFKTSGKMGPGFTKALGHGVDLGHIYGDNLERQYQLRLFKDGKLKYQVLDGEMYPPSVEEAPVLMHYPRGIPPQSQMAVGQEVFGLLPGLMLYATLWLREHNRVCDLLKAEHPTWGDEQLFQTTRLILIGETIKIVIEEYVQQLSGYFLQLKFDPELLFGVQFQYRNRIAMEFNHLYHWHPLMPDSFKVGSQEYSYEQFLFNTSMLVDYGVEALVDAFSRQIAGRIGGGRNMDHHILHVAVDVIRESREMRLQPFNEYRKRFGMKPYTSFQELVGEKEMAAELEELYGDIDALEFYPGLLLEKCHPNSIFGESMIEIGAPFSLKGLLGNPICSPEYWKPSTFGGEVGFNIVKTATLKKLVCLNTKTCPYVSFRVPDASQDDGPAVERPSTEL

[6] = target: Sodium-dependent serotonin transporter (Homo sapiens, UniProt P31645)
Sequence of Sodium-dependent serotonin transporter (P31645 whole entry): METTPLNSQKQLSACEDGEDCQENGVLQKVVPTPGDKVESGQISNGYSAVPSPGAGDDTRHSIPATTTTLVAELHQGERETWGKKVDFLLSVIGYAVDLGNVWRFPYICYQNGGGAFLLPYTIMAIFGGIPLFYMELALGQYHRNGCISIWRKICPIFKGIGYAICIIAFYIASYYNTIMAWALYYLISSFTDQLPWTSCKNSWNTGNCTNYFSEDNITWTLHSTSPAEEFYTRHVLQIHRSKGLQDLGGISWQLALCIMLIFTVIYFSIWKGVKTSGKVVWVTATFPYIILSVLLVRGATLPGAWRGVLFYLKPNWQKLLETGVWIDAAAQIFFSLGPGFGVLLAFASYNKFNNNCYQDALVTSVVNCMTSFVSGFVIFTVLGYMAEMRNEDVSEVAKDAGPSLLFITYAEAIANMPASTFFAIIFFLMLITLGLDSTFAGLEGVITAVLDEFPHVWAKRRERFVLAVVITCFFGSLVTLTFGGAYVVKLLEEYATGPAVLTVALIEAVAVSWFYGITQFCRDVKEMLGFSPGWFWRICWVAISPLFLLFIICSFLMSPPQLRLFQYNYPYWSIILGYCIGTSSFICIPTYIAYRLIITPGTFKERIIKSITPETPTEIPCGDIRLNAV

[7] = target: cGMP-inhibited 3',5'-cyclic phosphodiesterase 3A (Homo sapiens, UniProt Q14432); format: functional
Sequence of cGMP-inhibited 3',5'-cyclic phosphodiesterase 3A (Q14432 whole entry): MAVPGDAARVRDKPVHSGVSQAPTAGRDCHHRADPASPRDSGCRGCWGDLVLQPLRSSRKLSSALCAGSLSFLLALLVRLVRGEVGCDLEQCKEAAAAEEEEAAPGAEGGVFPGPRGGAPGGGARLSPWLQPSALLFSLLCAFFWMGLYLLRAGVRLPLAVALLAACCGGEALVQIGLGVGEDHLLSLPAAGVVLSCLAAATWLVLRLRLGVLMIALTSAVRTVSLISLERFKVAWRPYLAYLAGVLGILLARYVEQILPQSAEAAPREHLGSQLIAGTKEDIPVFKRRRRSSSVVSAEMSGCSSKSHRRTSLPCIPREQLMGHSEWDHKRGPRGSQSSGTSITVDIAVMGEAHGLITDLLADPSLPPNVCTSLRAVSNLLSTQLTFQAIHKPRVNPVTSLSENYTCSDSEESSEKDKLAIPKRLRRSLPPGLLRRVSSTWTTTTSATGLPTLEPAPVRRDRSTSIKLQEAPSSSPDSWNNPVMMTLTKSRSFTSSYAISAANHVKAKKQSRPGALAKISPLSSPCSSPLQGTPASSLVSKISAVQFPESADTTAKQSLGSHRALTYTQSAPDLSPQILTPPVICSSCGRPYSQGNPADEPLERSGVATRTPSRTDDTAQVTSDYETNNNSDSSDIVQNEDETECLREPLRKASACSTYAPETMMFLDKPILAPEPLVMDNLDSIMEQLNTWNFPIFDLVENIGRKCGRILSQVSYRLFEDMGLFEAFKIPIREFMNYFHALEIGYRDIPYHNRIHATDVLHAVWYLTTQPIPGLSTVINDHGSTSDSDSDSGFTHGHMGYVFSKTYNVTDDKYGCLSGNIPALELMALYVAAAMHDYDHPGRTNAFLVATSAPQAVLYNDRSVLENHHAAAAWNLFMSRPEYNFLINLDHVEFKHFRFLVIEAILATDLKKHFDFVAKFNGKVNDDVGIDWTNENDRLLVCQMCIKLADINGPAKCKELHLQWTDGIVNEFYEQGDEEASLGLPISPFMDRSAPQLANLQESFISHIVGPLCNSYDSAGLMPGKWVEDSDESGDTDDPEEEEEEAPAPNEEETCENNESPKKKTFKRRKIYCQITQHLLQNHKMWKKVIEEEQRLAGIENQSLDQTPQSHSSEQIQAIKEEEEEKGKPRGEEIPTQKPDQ

[8] = target: T4, Alpha-1A adrenergic receptor (Homo sapiens, UniProt P35348); format: functional, cell-based
T4 sequence (P35348 whole entry): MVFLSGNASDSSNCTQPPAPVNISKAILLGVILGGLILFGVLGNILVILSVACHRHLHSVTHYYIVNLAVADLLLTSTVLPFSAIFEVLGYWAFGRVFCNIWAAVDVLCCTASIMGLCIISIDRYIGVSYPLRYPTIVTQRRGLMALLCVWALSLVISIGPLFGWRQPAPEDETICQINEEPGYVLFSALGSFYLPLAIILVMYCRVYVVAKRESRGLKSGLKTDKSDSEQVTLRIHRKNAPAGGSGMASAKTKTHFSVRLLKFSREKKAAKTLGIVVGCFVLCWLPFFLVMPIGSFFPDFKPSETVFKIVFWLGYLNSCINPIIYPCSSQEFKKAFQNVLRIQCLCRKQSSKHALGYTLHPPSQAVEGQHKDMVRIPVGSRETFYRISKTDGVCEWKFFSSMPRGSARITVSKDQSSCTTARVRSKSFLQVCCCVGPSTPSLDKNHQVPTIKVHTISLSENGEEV

[9] = target: T5, Amine oxidase [flavin-containing] A (Homo sapiens, UniProt P21397); format: functional
T5 sequence (P21397 whole entry): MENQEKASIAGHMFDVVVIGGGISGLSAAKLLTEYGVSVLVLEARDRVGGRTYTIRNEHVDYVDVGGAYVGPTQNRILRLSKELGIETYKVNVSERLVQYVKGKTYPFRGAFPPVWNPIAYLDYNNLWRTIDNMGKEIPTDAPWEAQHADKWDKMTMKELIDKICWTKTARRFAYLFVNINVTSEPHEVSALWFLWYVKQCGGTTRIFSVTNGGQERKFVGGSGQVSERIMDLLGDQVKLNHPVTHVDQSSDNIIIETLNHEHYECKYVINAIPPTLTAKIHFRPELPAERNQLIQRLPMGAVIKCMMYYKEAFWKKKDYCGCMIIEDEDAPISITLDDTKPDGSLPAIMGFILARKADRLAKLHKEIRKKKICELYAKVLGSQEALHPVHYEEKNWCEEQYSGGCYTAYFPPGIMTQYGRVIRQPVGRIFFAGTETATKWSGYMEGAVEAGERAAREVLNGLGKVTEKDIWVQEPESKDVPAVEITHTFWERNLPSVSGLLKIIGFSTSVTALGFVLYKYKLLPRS
Further: assay procedure not described here.

SMILES | AC50 [1] [µM] | AC50 [2] [µM] | AC50 [3] [µM] | AC50 [4] [µM] | AC50 [5] [µM] | AC50 [6] [µM] | AC50 [7] [µM] | AC50 [8] [µM] | AC50 [9] [µM]
CC[C@@H]1/C=C(\C)C[C@H](C)C[C@H](OC)[C@H]2O[C@@](O)(C(=O)C(=O)N3CCCC[C@H]3C(=O)O[C@H](/C(C)=C/[C@@H]3CC[C@H](Cl)[C@H](OC)C3)[C@H](C)[C@@H](O)CC1=O)[C@H](C)C[C@@H]2OC [PIMECROLIMUS] | > 30 | > 30 | > 30 | > 30 | > 30 | > 30 | > 3 | > 30 | > 30
CC(C(=O)O)c1ccc2c(c1)Cc1cccnc1O2 (stereo unspecified) [PRANOPROFEN] | > 30 | > 30 | > 30 | > 30 | 0.478 | > 10 | > 30 | > 30 | > 30
O=C(O)CCn1c2c(c3ccccc31)C[C@H](NS(=O)(=O)c1ccc(F)cc1)CC2 [RAMATROBAN] | > 30 | > 30 | > 30 | > 30 | > 30 | > 30 | > 30 | > 30 | > 30
CCO[C@@H](Cc1ccc(OCCn2c(C)ccc2-c2ccc(SC)cc2)cc1)C(=O)O [SAROGLITAZAR] | > 30 | 8.57 | 24.5 | 16.4 | 9.49 | > 30 | > 30 | 15 | > 30
CN1CCC2=C(C1)c1ccccc1Cc1ccccc12 [SETIPTILINE] | 0.154 | > 30 | 3.52 | > 30 | > 30 | 8.15 | > 30 | > 30 | > 30
COc1ccc(CCC(C)NCC(O)c2ccc(O)c([S+](C)[O-])c2)cc1 (stereo unspecified) [SULFINALOL] | 0.326 | > 30 | 10.6 | > 30 | > 30 | 0.866 | > 30 | > 30 | > 30
CCC1C(C)=NN=C(c2ccc(OC)c(OC)c2)c2cc(OC)c(OC)cc21 (stereo unspecified) [TOFISOPAM] | > 30 | > 30 | > 30 | > 30 | > 30 | > 30 | 6.62 | > 30 | > 30
COc1cc(NCc2ccc3nc(N)nc(N)c3c2C)cc(OC)c1OC [TRIMETREXATE] | 8.06 | > 30 | 12.3 | > 30 | 28.1 | > 30 | 11.9 | > 30 | 3.8
C[C@@H]1O[C@@H](OC[C@H]2O[C@@H](Oc3c(-c4ccc(OCCO)c(OCCO)c4)oc4cc(OCCO)cc(O)c4c3=O)[C@H](O)[C@@H](O)[C@@H]2O)[C@H](O)[C@H](O)[C@H]1O [TROXERUTIN] | > 30 | > 30 | > 30 | > 30 | > 30 | > 30 | > 30 | > 30 | > 30
